Like-named read-outs stand apart in the source and are kept apart here.
Columns and labels:
rat mGlu3 = rat mGlu3 (Rattus norvegicus (Rat), UniProt P31422); test: mGlu3 Ca2+ flux assay; format: cell-based; conditions: for IC50: read-out: rat mGlu3 IC50; for remaining activity at 30 µM: amplitude of response at 30 μM test compound as % of maximal response to glutamate, read-out: rat mGlu3 Glu max (%)
Summary of the method: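 This calcium mobilization assay used rat mGlu3 cells cultured overnight (37° C., 5% CO2) and read on the FDSS7000 after a 10 minute room-temperature incubation in 20 μL assay buffer. Each of 360 readings per well was divided by its initial value (F/F0). Potency came from fitting normalized responses against log concentration with an unconstrained 4 parameter logistic equation, weighting triplicate points equally.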

rat mGlu5 = rat mGlu5 (Rattus norvegicus (Rat), UniProt P31424); test: mGlu5 Ca2+ flux assay; format: cell-based; conditions: for Fold selectivity (mGlu3 vs. mGlu5): ratio of rat mGlu5 EC50 or IC50 to rat mGlu3 IC50; for EC50: read-out: rat mGlu5 EC50 or IC50
Sequence of rat mGlu5 (P31424 21-1203): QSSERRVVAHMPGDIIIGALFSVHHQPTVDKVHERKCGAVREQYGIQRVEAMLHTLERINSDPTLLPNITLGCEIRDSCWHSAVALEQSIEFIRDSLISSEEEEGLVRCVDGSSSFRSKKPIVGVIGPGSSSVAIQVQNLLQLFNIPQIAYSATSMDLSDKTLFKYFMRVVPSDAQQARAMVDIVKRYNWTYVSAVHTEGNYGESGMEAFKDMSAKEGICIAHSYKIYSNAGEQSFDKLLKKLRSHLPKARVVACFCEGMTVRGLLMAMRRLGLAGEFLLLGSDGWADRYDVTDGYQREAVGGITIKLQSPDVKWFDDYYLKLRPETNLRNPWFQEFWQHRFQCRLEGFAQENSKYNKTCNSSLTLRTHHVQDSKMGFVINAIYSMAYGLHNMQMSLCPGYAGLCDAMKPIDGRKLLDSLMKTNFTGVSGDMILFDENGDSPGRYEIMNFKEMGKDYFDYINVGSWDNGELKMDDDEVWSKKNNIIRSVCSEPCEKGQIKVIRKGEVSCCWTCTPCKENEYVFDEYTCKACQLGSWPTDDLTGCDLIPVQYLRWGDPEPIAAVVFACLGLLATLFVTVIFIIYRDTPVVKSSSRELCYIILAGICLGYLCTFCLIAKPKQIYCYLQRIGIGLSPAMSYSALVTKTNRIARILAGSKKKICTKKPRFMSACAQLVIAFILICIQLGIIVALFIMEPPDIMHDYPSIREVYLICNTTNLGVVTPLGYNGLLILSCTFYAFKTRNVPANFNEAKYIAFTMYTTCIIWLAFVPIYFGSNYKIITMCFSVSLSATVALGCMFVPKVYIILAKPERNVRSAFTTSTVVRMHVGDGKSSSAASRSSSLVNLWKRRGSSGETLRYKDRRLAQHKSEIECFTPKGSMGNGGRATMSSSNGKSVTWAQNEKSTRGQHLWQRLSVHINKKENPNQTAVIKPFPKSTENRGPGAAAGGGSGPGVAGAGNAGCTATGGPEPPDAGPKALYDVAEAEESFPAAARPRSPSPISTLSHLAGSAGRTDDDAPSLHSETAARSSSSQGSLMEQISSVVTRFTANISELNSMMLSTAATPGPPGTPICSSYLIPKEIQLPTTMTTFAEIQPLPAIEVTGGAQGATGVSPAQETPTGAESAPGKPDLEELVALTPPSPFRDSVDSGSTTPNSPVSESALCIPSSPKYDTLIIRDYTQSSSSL
Summary of the method: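 Ca2+ flux read kinetically (FDSS7000) after overnight culture at 37° C/5% CO2 and a 5 min room-temperature buffer step following dye removal. Signals expressed per well as F/F0 and normalized to peak glutamate response; EC50 fitted by free 4-parameter logistic, three replicates per concentration equally weighted.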

[1] = NAM potency, decrease of glutamate EC80 response, >30,000 = no measurable activity, >10,000 = no plateau

Sequence of rat mGlu3 (P31422 23-879): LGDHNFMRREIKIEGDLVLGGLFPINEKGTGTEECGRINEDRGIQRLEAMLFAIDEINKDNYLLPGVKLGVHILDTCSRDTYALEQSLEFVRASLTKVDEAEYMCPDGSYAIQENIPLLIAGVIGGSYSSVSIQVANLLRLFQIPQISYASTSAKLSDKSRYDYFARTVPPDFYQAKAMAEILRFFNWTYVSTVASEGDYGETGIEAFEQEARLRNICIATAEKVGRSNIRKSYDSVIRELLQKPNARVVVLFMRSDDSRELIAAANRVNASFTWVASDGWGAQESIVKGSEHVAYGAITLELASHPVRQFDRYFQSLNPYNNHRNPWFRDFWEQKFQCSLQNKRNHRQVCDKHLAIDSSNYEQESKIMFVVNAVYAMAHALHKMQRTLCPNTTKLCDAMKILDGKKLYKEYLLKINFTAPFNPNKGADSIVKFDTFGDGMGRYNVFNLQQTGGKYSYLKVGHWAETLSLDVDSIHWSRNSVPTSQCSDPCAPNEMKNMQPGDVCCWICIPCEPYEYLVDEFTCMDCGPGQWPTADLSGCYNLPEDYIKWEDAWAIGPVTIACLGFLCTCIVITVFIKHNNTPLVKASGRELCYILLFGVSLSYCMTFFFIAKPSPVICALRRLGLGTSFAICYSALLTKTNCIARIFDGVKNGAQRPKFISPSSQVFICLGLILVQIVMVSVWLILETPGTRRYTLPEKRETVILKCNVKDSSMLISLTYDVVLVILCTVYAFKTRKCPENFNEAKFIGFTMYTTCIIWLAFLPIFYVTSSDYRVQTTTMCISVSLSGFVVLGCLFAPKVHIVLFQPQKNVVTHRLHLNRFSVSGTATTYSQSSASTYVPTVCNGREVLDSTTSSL

SMILES | IC50 (rat mGlu3; [1]) | remaining activity at 30 µM (rat mGlu3) | Fold selectivity (mGlu3 vs. mGlu5) (rat mGlu5) | EC50 (rat mGlu5) | IC50 (rat mGlu3)
COc1ccc(N(C)Cc2cc3n(n2)CCN(c2c(F)cc(F)cc2F)C3=O)cc1 [Compound 102, 2-(((4-methoxyphenyl)(methyl)amino)methyl)-5-(2,4,6-trifluorophenyl)-6,7-dihydropyrazolo[1,5-a]pyrazin-4(5H)-one] | 801 nM | 1.68% | >37 | > 30000 nM | –
COc1ccc(N(C)Cc2cc3n(n2)CCN(c2cccc(C)c2)C3=O)cc1 [Compound 103, 2-(((4-methoxyphenyl)(methyl)amino)methyl)-5-(m-tolyl)-6,7-dihydropyrazolo[1,5-a]pyrazin-4(5H)-one] | 805 nM | 1.16% | >37 | > 30000 nM | –
COc1ccc(N(C)Cc2cc3n(n2)CCN(c2cc(F)cc(F)c2)C3=O)cc1 [Compound 104, 5-(3,5-difluorophenyl)-2-(((4-methoxyphenyl)(methyl)amino)methyl)-6,7-dihydropyrazolo[1,5-a]pyrazin-4(5H)-one] | 856 nM | 1.3% | >35 | > 30000 nM | –
COc1ccc(N(C)Cc2cc3n(n2)CCN(c2ccccc2F)C3=O)cc1 [Compound 105, 5-(2-fluorophenyl)-2-(((4-methoxyphenyl)(methyl)amino)methyl)-6,7-dihydropyrazolo[1,5-a]pyrazin-4(5H)-one] | 871 nM | 2.05% | >34 | > 30000 nM | –
COc1ccc(N(C)Cc2cc3n(n2)CCN(c2cc(F)ccc2F)C3=O)cc1 [Compound 106, 5-(2,5-difluorophenyl)-2-(((4-methoxyphenyl)(methyl)amino)methyl)-6,7-dihydropyrazolo[1,5-a]pyrazin-4(5H)-one] | – | 0.79% | >29 | > 30000 nM | 1020 nM
COc1ccc(N(C)Cc2cc3n(n2)CCN(c2cccc(F)c2F)C3=O)cc1 [Compound 107, 5-(2,3-difluorophenyl)-2-(((4-methoxyphenyl)(methyl)amino)methyl)-6,7-dihydropyrazolo[1,5-a]pyrazin-4(5H)-one] | 1030 nM | 1.67% | >29 | > 30000 nM | –
COc1ccc(N(C)Cc2cc3n(n2)CCN(c2ccc(C)cc2F)C3=O)cc1 [Compound 108, 5-(2-fluoro-4-methylphenyl)-2-(((4-methoxyphenyl)(methyl)amino)methyl)-6,7-dihydropyrazolo[1,5-a]pyrazin-4(5H)-one] | 1250 nM | 0.97% | >24 | > 30000 nM | –
COc1ccc(N(C)Cc2cc3n(n2)CCN(c2ccc(F)cc2C)C3=O)cc1 [Compound 109, 5-(4-fluoro-2-methylphenyl)-2-(((4-methoxyphenyl)(methyl)amino)methyl)-6,7-dihydropyrazolo[1,5-a]pyrazin-4(5H)-one] | 1320 nM | 2.13% | >22 | > 30000 nM | –
COc1ccc(N(C)Cc2cc3n(n2)CCN(c2c(F)cccc2F)C3=O)cc1 [Compound 110, 5-(2,6-difluorophenyl)-2-(((4-methoxyphenyl)(methyl)amino)methyl)-6,7-dihydropyrazolo[1,5-a]pyrazin-4(5H)-one] | 1640 nM | 1.75% | >18 | > 30000 nM | –
COc1ccc(N(C)Cc2cc3n(n2)CCN(c2ccccc2C)C3=O)cc1 [Compound 111, 2-(((4-methoxyphenyl)(methyl)amino)methyl)-5-(o-tolyl)-6,7-dihydropyrazolo[1,5-a]pyrazin-4(5H)-one] | 2000 nM | 0.74% | >15 | > 30000 nM | –
COc1ccc(N(C)Cc2cc3n(n2)CCN(c2ccccc2C#N)C3=O)cc1 [Compound 112, 2-(2-(((4-methoxyphenyl)(methyl)amino)methyl)-4-oxo-6,7-dihydropyrazolo[1,5-a]pyrazin-5(4H)-yl)benzonitrile] | 3790 nM | 1.1% | >7.9 | > 30000 nM | –
COc1ccc(N(C)Cc2cc3n(n2)CCN(c2cccc(OC)c2)C3=O)cc1 [Compound 113, 5-(3-methoxyphenyl)-2-(((4-methoxyphenyl)(methyl)amino)methyl)-6,7-dihydropyrazolo[1,5-a]pyrazin-4(5H)-one] | 1120 nM | 0.7% | >26 | > 30000 nM | –
COc1ccc(N(C)Cc2cc3n(n2)CCN(c2ccc(OC)cc2)C3=O)cc1 [Compound 114, 5-(4-methoxyphenyl)-2-(((4-methoxyphenyl)(methyl)amino)methyl)-6,7-dihydropyrazolo[1,5-a]pyrazin-4(5H)-one] | 1370 nM | 1.7% | >21 | > 30000 nM | –
COc1ccc(N(C)Cc2cc3n(n2)CCN(c2csc(C)n2)C3=O)cc1 [Compound 115, 2-(((4-methoxyphenyl)(methyl)amino)methyl)-5-(2-methylthiazol-4-yl)-6,7-dihydropyrazolo[1,5-a]pyrazin-4(5H)-one] | 1620 nM | 3.88% | >18 | > 30000 nM | –
COc1ccc(N(C)Cc2cc3n(n2)CCN(c2cccc(C#N)c2)C3=O)cc1 [Compound 116, 3-(2-(((4-methoxyphenyl)(methyl)amino)methyl)-4-oxo-6,7-dihydropyrazolo[1,5-a]pyrazin-5(4H)-yl)benzonitrile] | 2210 nM | 1.55% | >13 | > 30000 nM | –
COc1ccc(N(C)Cc2cc3n(n2)CCN(c2ccccn2)C3=O)cc1 [Compound 117, 2-(((4-methoxyphenyl)(methyl)amino)methyl)-5-(pyridin-2-yl)-6,7-dihydropyrazolo[1,5-a]pyrazin-4(5H)-one] | 2730 nM | 1.59% | >10 | > 30000 nM | –
COc1ccc(N(C)Cc2cc3n(n2)CCN(c2ccc(C#N)cc2)C3=O)cc1 [Compound 118, 4-(2-(((4-methoxyphenyl)(methyl)amino)methyl)-4-oxo-6,7-dihydropyrazolo[1,5-a]pyrazin-5(4H)-yl)benzonitrile] | 1970 nM | 1.63% | >15 | > 30000 nM | –
COc1ccc(N(C)Cc2cc3n(n2)CCN(c2ccccc2OC)C3=O)cc1 [Compound 119, 5-(2-methoxyphenyl)-2-(((4-methoxyphenyl)(methyl)amino)methyl)-6,7-dihydropyrazolo[1,5-a]pyrazin-4(5H)-one] | 3280 nM | 1.3% | >9.1 | > 30000 nM | –
COCc1ccc(N2CCn3nc(CN(C)c4ccc(OC)cc4)cc3C2=O)cc1 [Compound 120, 5-(4-(methoxymethyl)phenyl)-2-(((4-methoxyphenyl)(methyl)amino)methyl)-6,7-dihydropyrazolo[1,5-a]pyrazin-4(5H)-one] | – | 1.48% | >10 | > 30000 nM | 2880 nM
COc1ccc(N(C)Cc2cc3n(n2)CCN(c2cccnc2)C3=O)cc1 [Compound 121, 2-(((4-methoxyphenyl)(methyl)amino)methyl)-5-(pyridin-3-yl)-6,7-dihydropyrazolo[1,5-a]pyrazin-4(5H)-one] | 4690 nM | 0.66% | >6.3 | > 30000 nM | –
COc1ccc(N(C)Cc2cc3n(n2)CCN(c2ccc(F)cn2)C3=O)cc1 [Compound 122, 5-(5-fluoropyridin-2-yl)-2-(((4-methoxyphenyl)(methyl)amino)methyl)-6,7-dihydropyrazolo[1,5-a]pyrazin-4(5H)-one] | 1140 nM | 1.4% | >26 | > 30000 nM | –
COc1ccc(N(C)Cc2cc3n(n2)CCN(c2ccc(OC(F)F)cc2)C3=O)cc1 [Compound 123, 5-(4-(difluoromethoxy)phenyl)-2-(((4-methoxyphenyl)(methyl)amino)methyl)-6,7-dihydropyrazolo[1,5-a]pyrazin-4(5H)-one] | 1030 nM | 0.3% | >29 | > 30000 nM | –
COc1ccc(N(C)Cc2cc3n(n2)CCN(c2ccc(Cl)cn2)C3=O)cc1 [Compound 124, 5-(5-chloropyridin-2-yl)-2-(((4-methoxyphenyl)(methyl)amino)methyl)-6,7-dihydropyrazolo[1,5-a]pyrazin-4(5H)-one] | 917 nM | 1.64% | >32 | > 30000 nM | –
COc1ccc(N(C)Cc2cc3n(n2)CCN(c2ccc(Cl)cc2F)C3=O)cc1 [Compound 125, 5-(4-chloro-2-fluorophenyl)-2-(((4-methoxyphenyl)(methyl)amino)methyl)-6,7-dihydropyrazolo[1,5-a]pyrazin-4(5H)-one] | 1380 nM | 1.47% | >21 | > 30000 nM | –

Reference: patent US9676782B2, “Substituted pyrazolo[1,5-a]pyrazines as negative allosteric modulators of metabotropic glutamate receptor 3” (Vanderbilt University, priority 2014, dated 2017)
